Test results published in US5405843A, “Quinoline derivatives” (Mitsui Toatsu Chemicals, Incorporated, priority 1988, dated 1995).

How the values were obtained:
[1] = system: Adriamycin resistant strain 2780 AD cells of human ovarian cancer A2780 cells; assay: Potentiating effect on incorporation of 3H-vincristine into adriamycin-resistant cancer cells; type: cell-based; details: Homo sapiens, 2780AD, 2 h, 20 nM 3H-vincristine, control = 100, read-out: 3H-vincristine accumulation; for activity at 1 µg/mL: compound 1 μg/ml; for activity at 10 µg/mL: compound 10 μg/ml
Experimental: Potentiating Effect of the Compounds on Incorporation of Anticancer Drugs into Drug-resistant Cancer Cells
Adriamycin resistant strain 2780 AD cells of human ovarian cancer A2780 cells (A. M. Rogan et al., Science 224, 994-996, 1984) were suspended at a concentration of 1×10^6 /ml in RPMI-1640 medium supplemented with 5% fetal calf serum, and 1 ml of the cancer cell suspension was dispensed into each well of a multi-well culture plate (24 wells, […] in diameter) and then incubated at 37° C. in an atmosphere of 5% CO2. After 24 hours incubation, the medium in each well was replaced by 0.5 ml of RPMI-1640 medium supplemented containing 20 nM ^3 H-vincristine (1×10^4 dpm/pmol), 5% fetal calf serum and 10 mM Hepes buffer. Five microliters of a solution of the compound to be tested, which had been dissolved in DMSO and diluted with […] (at a concentration of 1.0 microgram/ml or 10.0 micrograms/ml), was added to each well and the incubation was continued at 37° C. in 5% CO2 for 2 hours. The resultant cells were washed in cold saline-phosphate buffer. In each well was added 0.5 ml of 0.2N NaOH, and the resulting cell suspension in each well was independently transferred into a vial and then heated in a water bath at 56° C. for 30-60 minutes to dissolve the cells. After adding 4 ml of acid aquazole 2, the amount of ^3 H-vincristine incorporated into the cells was determined by a fluid scintillation counter.

[2] = system: Vincristine-resistant strain P388/VCR cells of mouse leukemia P388 cells; assay: Potentiating effect on vincristine in mice having vincristine-resistant mouse leukemia (survival); type: in vivo, mouse (female CDFI mice); details: peritoneal, once a day for 5 days; for T/C (rate of life prolongation): control = 100
[3] = compound 30 mg/kg + vincristine 100 ug/kg
[4] = compound 10 mg/kg + vincristine 100 ug/kg

SMILES | activity at 1 µg/mL [1] [%] | activity at 10 µg/mL [1] [%] | Average surviving period [2, 3] [days] | T/C (rate of life prolongation) [2, 3] [%] | Average surviving period [2, 4] [days] | T/C (rate of life prolongation) [2, 4] [%]
O=C(CCN1CCN(C(c2ccccc2)c2ccccc2)CC1)Nc1cccc2ncccc12 [Example 35, 5-[3-(4-Diphenylmethypiperazine-1-yl)propionamido]-quinoline] | 654 | 627 | 11.9 ± 0.7 | 116 | – | –
Cc1cc(C)c2c(OCC(O)CN3CCN(C4c5ccccc5COc5ccccc54)CC3)cccc2n1 (centres unmarked) [Example 21, 2,4-Dimethyl-5-[3-(4-(6,11-dihydrodibenzo[b,e]oxepine-11-yl)piperazine-1-yl)-2-hydroxypropoxy]quinoline] | 727 | 745 | 12.5 ± 0.6 | 121 | – | –
OC(COc1cccc2ncccc12)CN1CCC(C2(O)c3ccccc3CCc3ccccc32)CC1 (centres unmarked) [Example 78, 5-[2-Hyroxy-3-(4-(5-hydroxydibenzosuberane-5-yl)piperidine-1-yl)propoxy]quinoline] | 943 | – | 12.8 ± 0.8 | 120 | – | –
OC(COc1cccc2ncccc12)CN1CCN(CC(c2ccccc2)c2ccccc2)CC1 (centres unmarked) [Example 17, 5-[3-(4-(2,2-Diphenylethyl)piperazine-1-yl)-2-hydroxypropoxy]quinoline] | 730 | – | 11.8 ± 1.1 | 115 | – | –
COc1ccc2c(OCC(O)CN3CCN(C(c4ccccc4)c4ccccc4)CC3)cccc2n1 (centres unmarked) [Example 42, 5-[3-(4-Diphenylmethylpiperazine-1-yl)-2-hydroxypropoxy]-2-methoxyquinoline] | 624 | – | 13.9 ± 2.4 | 126 | – | –
c1ccc(C(c2ccccc2)N2CCN(CCOc3cccc4ncccc34)CC2)cc1 [Example 34, 5-[2-(4-Diphenylmethylpiperazine-1-yl)ethoxy]quinoline] | 785 | – | 10.8 ± 0.8 | 98 | – | –
OC(COc1cccc2nc(Cl)ccc12)CN1CCN(C2c3ccccc3CCc3ccccc32)CC1 (centres unmarked) [Example 18, 5-[3-(4-(5-Dibenzosuberanyl)piperazine-1-yl)-2-hydroxypropoxy]-2-chloroquinoline] | 743 | 761 | 13.8 ± 0.4 | 131 | – | –
O=C(CCN1CCN(C2c3ccccc3CCc3ccccc32)CC1)Nc1cccc2ncccc12 [Example 36] | 821 | 716 | 12.6 ± 0.9 | 122 | – | –
OC(COc1cccc2ncccc12)CN1CCN(C2c3ccccc3C=Cc3ccccc32)CC1 (centres unmarked) [Example 20, 5-[3-(4-(5-Dibenzosuberenyl)piperazine-1-yl)-2-hydroxypropoxy]quinoline] | 794 | – | 13.7 ± 1.0 | 133 | – | –
OC(COc1cccc2ncccc12)CN1CCCN(C(c2ccccc2)c2ccccc2)CC1 (centres unmarked) [Example 4, 5-[3-(4-Diphenylmethylhomopiperazine-1-yl)-2-hydroxypropoxy]quinoline] | 438 | 770 | 11.8 ± 0.4 | 107 | – | –
c1ccc(C(=C2CCN(CCCOc3cccc4ncccc34)CC2)c2ccccc2)cc1 [Example 84, 5-[3-(4-(Diphenylmethylene)piperidine-1-yl)propoxy]quinoline] | 159 | 878 | 13.0 ± 0.7 | 121 | – | –
CN(CCCN1c2ccccc2CCc2ccccc21)CC(O)COc1cccc2ncccc12 (centres unmarked) [Example 82, 5-[3-(N-Methyl-N-(3-(5H-10,11-dihydrodibenzo(b,f)-azepin-5-yl)propyl)amino]-2-hydroxypropoxy]quinoline] | 667 | – | 11.2 ± 1.4 | 105 | – | –
COc1ccc2c(OCC(O)CN3CCN(C4c5ccccc5CCc5ccccc54)CC3)cccc2n1 (centres unmarked) [Example 9, 5-[3-(4-(Dibenzosuberane-5-yl)piperazine-1-yl)-2-hydroxypropoxy]-2-methoxyquinoline] | 721 | 947 | 14.2 ± 0.6 | 134 | – | –
COc1ccc2c(OCC(O)CN3CCN(C(=O)C(c4ccccc4)c4ccccc4)CC3)cccc2n1 (centres unmarked) [Example 8, 5-[3-(4-(2,2-Diphenylacetyl)piperazine-1-yl) -2-hydroxypropoxy]-2-methoxyquinoline] | 394 | 863 | 12.2 ± 0.6 | 115 | – | –
O=C(C(c1ccccc1)c1ccccc1)N1CCN(CC(O)COc2cccc3ncccc23)CC1 (centres unmarked) [Example 16, 5-[3-(4-(2,2-Diphenylacetyl)piperazine-1-yl)-2-hydroxypropoxy]quinoline] | 850 | 982 | 13.9 ± 1.4 | 132 | – | –
CCN(CCN(CC)C(c1ccccc1)c1ccccc1)CC(O)COc1cccc2ncccc12 (centres unmarked) [Example 10, 5-(3-[N-(2-(N-Diphenylmethyl-N-ethylamino)ethyl)-N-ethylamino]-2-hydroxypropoxy)quinoline] | 642 | 932 | 12.3 ± 1.4 | 112 | – | –
c1ccc(C(c2ccccc2)N2CCN(CCCOc3cccc4ncccc34)CC2)cc1 [Example 32, 5-[3-(4-Diphenylmethylpiperazine-1-yl)propoxy]quinoline] | 816 | – | 11.3 ± 0.4 | 110 | – | –
OC(COc1cccc2ncccc12)CN1CCN(C(c2ccccc2)c2ccccn2)CC1 (centres unmarked) [Example 15, 5-[2-Hydroxy-3-(4-(phenyl-2-pyridylmethyl)piperazine-1-yl)propoxy]quinoline] | 840 | – | 12.3 ± 0.4 | 117 | – | –
OC(COc1cccc2cnccc12)CN1CCN(C2c3ccccc3CCc3ccccc32)CC1 (centres unmarked) [Example 44, 5-[3-(4-(Dibenzosuberane-5-yl)piperazine-1-yl)-2-hydroxypropoxy]isoquinoline] | 636 | 934 | 13.8 ± 1.0 | 123 | 12.5 ± 0.0 | 112
COc1ccc(C(c2ccc(OC)cc2)N2CCN(CC(O)COc3cccc4ncccc34)CC2)cc1 (centres unmarked) [Example 59, 5-(3-[4-(Bis-(4-methoxyphenyl)methyl)piperazine-1-yl] -2-hydroxypropoxy)quinoline] | 561 | 685 | 13.2 ± 1.2 | 125 | – | –
Cc1cc(C)c2c(OCC(O)CN3CCN(C(c4ccccc4)c4ccccc4)CC3)cccc2n1 (centres unmarked) [Example 5, 2,4-Dimethyl-5-[3-(4-diphenylmethylpiperazine-1-yl)-2-hydroxypropoxy]quinoline] | 732 | – | 12.8 ± 0.8 | 124 | – | –
